Measurements from patent US20230042936A1, “PYRIDO[2,3-d]PYRIMIDIN-7(8H)-ONES AS CDK INHIBITORS” (PROSENESTAR LLC, priority 2020, published 2023).
Where two headings read alike, the source gives them in different places.

Assays:
CDC7/DBF4 = CDC7/DBF4 (Homo sapiens, UniProt O00311); test: Kinase profiling; assay type: biochemical; details: 10 semi-logarithmic dilutions from 50 μM, singlicate; read-out: IC50 CDC7/DBF4
CDK1/CycA2 = CDK1/CycA2 (Homo sapiens, UniProt P06493); test: Kinase profiling; assay type: biochemical; details: 10 semi-logarithmic dilutions from 50 μM, singlicate
CDK1/CycB1 = CDK1/CycB1 (Homo sapiens, UniProt P06493); test: Kinase profiling; assay type: biochemical; details: 10 semi-logarithmic dilutions from 50 μM, singlicate
CDK1/CycE1 = CDK1/CycE1 (Homo sapiens, UniProt P06493); test: Kinase profiling; assay type: biochemical; details: 10 semi-logarithmic dilutions from 50 μM, singlicate
CDK12wt/CycK = CDK12wt/CycK (Homo sapiens, UniProt Q9NYV4); test: Kinase profiling; assay type: biochemical; details: 10 semi-logarithmic dilutions from 50 μM, singlicate
CDK19/CycC = CDK19/CycC (Homo sapiens, UniProt Q9BWU1); test: Kinase profiling; assay type: biochemical; details: 10 semi-logarithmic dilutions from 50 μM, singlicate
CDK2/CycE1 = CDK2/CycE1 (Homo sapiens, UniProt P24941); test: Kinase profiling; assay type: biochemical; details: 10 semi-logarithmic dilutions from 50 μM, singlicate
CDK3/CycC = CDK3/CycC (Homo sapiens, UniProt Q00526); test: Kinase profiling; assay type: biochemical; details: 10 semi-logarithmic dilutions from 50 μM, singlicate
CDK4/CycD1 = CDK4/CycD1 (Homo sapiens, UniProt P11802); test: Kinase profiling; assay type: biochemical; details: 10 semi-logarithmic dilutions from 50 μM, singlicate
CDK5/p35NCK = CDK5/p35NCK (Homo sapiens, UniProt Q00535); test: Kinase profiling; assay type: biochemical; details: 10 semi-logarithmic dilutions from 50 μM, singlicate
CDK6/CycD1 = CDK6/CycD1 (Homo sapiens, UniProt Q00534); test: Kinase profiling; assay type: biochemical; details: 10 semi-logarithmic dilutions from 50 μM, singlicate
CDK6/CycD3 = CDK6/CycD3 (Homo sapiens, UniProt Q00534); test: Kinase profiling; assay type: biochemical; details: 10 semi-logarithmic dilutions from 50 μM, singlicate
CDK7/CycH/MAT1 = CDK7/CycH/MAT1 (Homo sapiens, UniProt P50613); test: Kinase profiling; assay type: biochemical; details: 10 semi-logarithmic dilutions from 50 μM, singlicate
DYRK1A = DYRK1A (Homo sapiens, UniProt Q13627); test: Kinase profiling; assay type: biochemical; details: 10 semi-logarithmic dilutions from 50 μM, singlicate
ERK1 = ERK1 (Homo sapiens, UniProt P27361); test: Kinase profiling; assay type: biochemical; details: 10 semi-logarithmic dilutions from 50 μM, singlicate
HIPK2 = HIPK2 (Homo sapiens, UniProt Q9H2X6); test: Kinase profiling; assay type: biochemical; details: 10 semi-logarithmic dilutions from 50 μM, singlicate; read-out: IC50 HIPK2
PIM1 = PIM1 (Homo sapiens, UniProt P11309); test: Kinase profiling; assay type: biochemical; details: 10 semi-logarithmic dilutions from 50 μM, singlicate
[1] = test system: H460 lung carcinoma cell line; test: Proliferation assay: determination of GI50; assay type: cell-based, human; details: Homo sapiens, NCI-H460; Table 3; 48 h; n = 2 independent experiments
In short: (§1)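 Rb-proficient U87MG, MDA-MB-231 and H460 and Rb-deficient SW1783, grown in DMEM or RPMI-1640 with 10% FBS, treated for 48 h. Cells fixed in 4% PFA, Hoechst 33342-stained and counted by high-content imaging (20×, 30 fields/well); GI50 taken as absolute IC50 from dose-response fit.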

[2] = test system: MCF10 non-transformed mammary epithelial cell line; test: Proliferation assay: determination of GI50; assay type: cell-based, human; details: Homo sapiens, MCF10; Table 3; 48 h; n = 2 independent experiments
[3] = test system: MDA-MB-231 breast carcinoma cell line; test: Proliferation assay: determination of GI50; assay type: cell-based, human; details: Homo sapiens, MDA-MB-231
In short: as §1

[4] = test system: U87MG glioblastoma cell line; test: Proliferation assay: determination of GI50; assay type: cell-based, human; details: Homo sapiens, U-87 MG
In short: as §1

[5] = test system: panel of 27 kinases (CDK family members); test: Kinase profiling, results in words; assay type: biochemical; details: from Table 1
[6] = Table 3, 48 h, n = 3 independent experiments, read-out: GI50 MDA-MB231
[7] = Table 4, n = 4, read-out: Growth inhibition GI50, Breast cancer pRB Wild-Type MDA-MB-231
[8] = Table 3, 48 h, n = 3 independent experiments, read-out: GI50 U87MG
[9] = Table 4, n = 4, read-out: Growth inhibition GI50, Glioblastoma pRB Wild-Type U87MG

Sequence of CDK4/CycD1 (P11802 whole entry): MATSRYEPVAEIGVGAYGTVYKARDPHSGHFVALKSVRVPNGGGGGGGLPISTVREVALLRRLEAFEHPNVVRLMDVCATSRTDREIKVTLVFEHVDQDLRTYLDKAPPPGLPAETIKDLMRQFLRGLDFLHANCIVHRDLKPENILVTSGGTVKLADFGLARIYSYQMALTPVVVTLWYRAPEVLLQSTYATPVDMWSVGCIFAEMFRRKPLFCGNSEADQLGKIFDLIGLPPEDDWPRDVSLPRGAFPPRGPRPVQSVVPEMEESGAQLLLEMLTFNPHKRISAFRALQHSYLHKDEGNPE
Sequence of CDK4/CycD1 (P24385 whole entry partner): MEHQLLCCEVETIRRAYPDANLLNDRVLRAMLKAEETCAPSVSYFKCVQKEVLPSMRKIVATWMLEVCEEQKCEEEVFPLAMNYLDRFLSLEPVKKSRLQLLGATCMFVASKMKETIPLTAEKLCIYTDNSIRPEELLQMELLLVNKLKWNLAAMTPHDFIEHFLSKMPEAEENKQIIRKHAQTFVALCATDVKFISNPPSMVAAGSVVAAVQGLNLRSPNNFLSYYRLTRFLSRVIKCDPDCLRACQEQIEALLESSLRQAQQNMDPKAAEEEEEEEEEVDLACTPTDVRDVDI
Sequence of ERK1 (P27361 whole entry): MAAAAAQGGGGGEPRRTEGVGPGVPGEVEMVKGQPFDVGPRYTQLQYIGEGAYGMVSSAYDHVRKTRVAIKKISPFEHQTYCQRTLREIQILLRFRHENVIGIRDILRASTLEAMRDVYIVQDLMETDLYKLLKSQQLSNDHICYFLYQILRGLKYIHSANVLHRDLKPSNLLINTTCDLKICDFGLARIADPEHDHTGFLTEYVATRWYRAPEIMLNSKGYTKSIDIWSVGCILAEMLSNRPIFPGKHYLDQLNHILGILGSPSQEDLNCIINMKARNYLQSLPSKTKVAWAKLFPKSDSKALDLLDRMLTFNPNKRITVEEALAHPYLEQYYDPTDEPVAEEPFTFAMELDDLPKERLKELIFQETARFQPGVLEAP
Sequence of CDK3/CycC (Q00526 whole entry): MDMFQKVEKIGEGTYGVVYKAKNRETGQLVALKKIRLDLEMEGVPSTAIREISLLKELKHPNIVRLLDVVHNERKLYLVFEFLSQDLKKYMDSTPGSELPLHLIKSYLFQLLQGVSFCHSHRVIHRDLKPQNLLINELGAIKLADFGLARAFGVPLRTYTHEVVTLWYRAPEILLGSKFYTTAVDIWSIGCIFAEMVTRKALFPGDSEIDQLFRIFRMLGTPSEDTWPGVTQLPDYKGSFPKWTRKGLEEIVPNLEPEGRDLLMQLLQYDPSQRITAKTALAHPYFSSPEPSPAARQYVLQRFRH
Sequence of CDK3/CycC (P24863 whole entry partner): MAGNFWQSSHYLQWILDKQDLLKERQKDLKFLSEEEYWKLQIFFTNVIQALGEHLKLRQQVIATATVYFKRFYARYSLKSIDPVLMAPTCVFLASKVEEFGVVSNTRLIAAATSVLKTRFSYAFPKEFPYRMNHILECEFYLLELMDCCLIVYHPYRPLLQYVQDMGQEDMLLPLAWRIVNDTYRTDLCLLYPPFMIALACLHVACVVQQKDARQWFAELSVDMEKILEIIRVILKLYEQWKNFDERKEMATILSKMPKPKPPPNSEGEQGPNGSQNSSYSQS
Sequence of HIPK2 (Q9H2X6 whole entry): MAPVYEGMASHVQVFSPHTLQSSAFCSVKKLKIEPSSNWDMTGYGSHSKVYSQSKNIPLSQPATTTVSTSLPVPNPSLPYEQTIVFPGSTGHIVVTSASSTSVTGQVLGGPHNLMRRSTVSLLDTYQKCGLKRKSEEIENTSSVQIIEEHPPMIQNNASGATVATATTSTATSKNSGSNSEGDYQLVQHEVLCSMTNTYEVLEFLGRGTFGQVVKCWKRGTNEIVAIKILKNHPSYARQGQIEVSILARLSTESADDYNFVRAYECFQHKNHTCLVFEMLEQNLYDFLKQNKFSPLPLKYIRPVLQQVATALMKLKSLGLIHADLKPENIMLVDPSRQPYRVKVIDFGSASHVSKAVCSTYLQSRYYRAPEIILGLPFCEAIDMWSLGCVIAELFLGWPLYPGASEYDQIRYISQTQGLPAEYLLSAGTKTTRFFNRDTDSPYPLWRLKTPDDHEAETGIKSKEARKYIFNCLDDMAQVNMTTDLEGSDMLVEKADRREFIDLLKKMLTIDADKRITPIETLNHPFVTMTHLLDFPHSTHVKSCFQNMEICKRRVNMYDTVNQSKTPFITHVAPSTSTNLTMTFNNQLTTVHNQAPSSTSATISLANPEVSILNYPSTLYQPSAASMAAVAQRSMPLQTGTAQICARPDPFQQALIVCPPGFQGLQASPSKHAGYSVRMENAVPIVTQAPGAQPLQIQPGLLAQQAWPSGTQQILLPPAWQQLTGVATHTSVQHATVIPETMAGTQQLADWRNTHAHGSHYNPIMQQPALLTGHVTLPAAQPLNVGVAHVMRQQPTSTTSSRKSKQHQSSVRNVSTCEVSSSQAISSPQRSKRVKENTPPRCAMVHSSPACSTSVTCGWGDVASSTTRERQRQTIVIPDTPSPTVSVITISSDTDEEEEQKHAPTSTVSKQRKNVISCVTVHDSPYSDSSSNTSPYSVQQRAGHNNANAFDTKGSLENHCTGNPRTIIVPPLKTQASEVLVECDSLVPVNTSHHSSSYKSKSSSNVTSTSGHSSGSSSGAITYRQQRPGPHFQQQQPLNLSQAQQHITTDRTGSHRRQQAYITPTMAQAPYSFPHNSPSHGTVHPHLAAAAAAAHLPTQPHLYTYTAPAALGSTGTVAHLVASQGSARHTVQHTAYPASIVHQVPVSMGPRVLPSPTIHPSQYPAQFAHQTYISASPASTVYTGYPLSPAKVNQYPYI
Sequence of CDK1/CycB1 (P06493 whole entry): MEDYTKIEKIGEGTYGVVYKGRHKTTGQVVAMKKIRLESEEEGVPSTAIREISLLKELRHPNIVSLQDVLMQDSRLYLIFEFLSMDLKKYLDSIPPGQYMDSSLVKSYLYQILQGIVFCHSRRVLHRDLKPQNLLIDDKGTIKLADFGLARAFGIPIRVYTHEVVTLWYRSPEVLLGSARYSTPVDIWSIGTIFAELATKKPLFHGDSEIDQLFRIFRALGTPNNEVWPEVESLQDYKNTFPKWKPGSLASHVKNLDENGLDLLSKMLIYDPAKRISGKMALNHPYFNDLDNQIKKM
Sequence of CDK1/CycB1 (P14635 whole entry partner): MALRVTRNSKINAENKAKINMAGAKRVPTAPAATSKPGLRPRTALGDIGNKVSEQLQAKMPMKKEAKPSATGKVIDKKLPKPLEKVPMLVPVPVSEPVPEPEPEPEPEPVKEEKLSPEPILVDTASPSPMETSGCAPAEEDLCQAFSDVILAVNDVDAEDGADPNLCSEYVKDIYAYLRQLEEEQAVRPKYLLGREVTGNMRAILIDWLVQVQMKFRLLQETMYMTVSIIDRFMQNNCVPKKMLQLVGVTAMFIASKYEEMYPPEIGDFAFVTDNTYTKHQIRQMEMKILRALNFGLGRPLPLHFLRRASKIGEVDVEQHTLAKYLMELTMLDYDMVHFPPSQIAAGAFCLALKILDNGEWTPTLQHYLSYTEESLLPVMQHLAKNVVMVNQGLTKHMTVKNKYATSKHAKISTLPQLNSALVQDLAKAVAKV
Sequence of CDK1/CycE1 (P06493 whole entry): as the sequence (P06493 whole entry) above
Sequence of CDK1/CycE1 (P24864 whole entry partner): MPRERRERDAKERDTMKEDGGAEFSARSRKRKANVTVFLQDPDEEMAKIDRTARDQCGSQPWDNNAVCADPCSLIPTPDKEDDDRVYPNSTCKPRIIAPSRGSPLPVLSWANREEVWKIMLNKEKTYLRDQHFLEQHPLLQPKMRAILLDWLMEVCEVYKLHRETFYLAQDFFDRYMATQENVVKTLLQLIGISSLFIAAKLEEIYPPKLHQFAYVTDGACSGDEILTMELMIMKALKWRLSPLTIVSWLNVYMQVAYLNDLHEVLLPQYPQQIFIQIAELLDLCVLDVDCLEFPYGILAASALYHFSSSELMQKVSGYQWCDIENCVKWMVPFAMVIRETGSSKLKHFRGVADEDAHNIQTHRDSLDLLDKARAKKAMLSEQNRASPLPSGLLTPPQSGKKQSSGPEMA
Sequence of CDK1/CycA2 (P06493 whole entry): as the sequence (P06493 whole entry) above
Sequence of CDK1/CycA2 (P20248 whole entry partner): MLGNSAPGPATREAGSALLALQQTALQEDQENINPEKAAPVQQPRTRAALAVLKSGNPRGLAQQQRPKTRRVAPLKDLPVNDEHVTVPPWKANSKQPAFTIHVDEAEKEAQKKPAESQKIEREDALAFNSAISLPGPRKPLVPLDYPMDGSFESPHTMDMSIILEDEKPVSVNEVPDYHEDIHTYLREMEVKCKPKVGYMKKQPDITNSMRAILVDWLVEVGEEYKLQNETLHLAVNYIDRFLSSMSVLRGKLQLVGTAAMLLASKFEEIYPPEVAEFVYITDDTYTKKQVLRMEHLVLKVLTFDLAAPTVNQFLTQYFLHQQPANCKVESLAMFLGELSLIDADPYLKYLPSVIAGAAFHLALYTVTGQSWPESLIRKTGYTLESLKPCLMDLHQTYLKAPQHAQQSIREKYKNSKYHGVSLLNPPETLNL

Structure (SMILES) | IC50 (CDC7/DBF4) | IC50 (CDK1/CycA2) | IC50 (CDK1/CycB1) | IC50 (CDK1/CycE1) | IC50 (CDK12wt/CycK) | IC50 (CDK19/CycC) | IC50 (CDK2/CycE1) | IC50 (CDK3/CycC) | IC50 (CDK4/CycD1) | IC50 (CDK5/p35NCK) | IC50 (CDK6/CycD1) | IC50 (CDK6/CycD3) | IC50 (CDK7/CycH/MAT1) | IC50 (DYRK1A) | IC50 (ERK1) | IC50 (HIPK2) | IC50 (PIM1) | GI50 [1] | GI50 [2] | GI50 [3, 6] | further results
CC(O)COC1CCN(c2ccc(Nc3ncc4ccc(=O)n([C@@H]5CC6CCC5C6)c4n3)cc2)CC1 (stereo partly drawn) [PS006, 8-((2R)-bicyclo[2.2.1]heptan-2-yl)-2-((4-(4-(2-hydroxypropoxy)piperidin-1-yl)phenyl)amino)pyrido[2,3-d]pyrimidin-7(8H)-one] | 5570 nM | 4280 nM | 1960 nM | 1210 nM | 1010 nM | 4130 nM | 108 nM | 885 nM | 18.9 nM | 771 nM | 12.5 nM | 108 nM | 8000 nM | 46800 nM | 8320 nM | 14700 nM | > 50000 nM | 190 nM | 420 nM | 1400 nM | GI50 [3, 7]: 1700 nM; GI50 [4, 8]: 2340 nM; GI50 [4, 9]: 2200 nM; affinity for CDK5 [5]: presented affinity; kinase affinity profile [5]: high affinity for CDK6/2/5/9
O=c1ccc2cnc(Nc3ccc(N4CCNCC4)cc3)nc2n1[C@@H]1CC2CCC1C2 (stereo partly drawn) [PS007, 8-((2R)-bicyclo[2.2.1]heptan-2-yl)-2-((4-(piperazin-1-yl)phenyl)amino)pyrido[2,3-d]pyrimidin-7(8H)-one] | 537 nM | 208 nM | 97.3 nM | 40.8 nM | 25.8 nM | 288 nM | 7.8 nM | 40.1 nM | < 1.5 nM | 15.9 nM | < 1.5 nM | 9.66 nM | 91.1 nM | 1180 nM | 2750 nM | 5560 nM | 485 nM | 160 nM | 70 nM | 150 nM | GI50 [4, 8]: 40 nM; kinase affinity profile [5]: bind many other CDK family members
CC(=O)c1c(C)c2cnc(Nc3ccc(N4CCC(CCCO)CC4)cc3)nc2n([C@@H]2CC3CCC2C3)c1=O (stereo partly drawn) [PS008, 6-acetyl-8-((2R)-bicyclo[2.2.1]heptan-2-yl)-2-((4-(4-(3-hydroxypropyl)piperidin-1-yl)phenyl)amino)-5-methylpyrido[2,3-d]pyrimidin-7(8H)-one] | > 50000 nM | 39100 nM | 721 nM | 3040 nM | 28100 nM | 25700 nM | 3640 nM | 1860 nM | 98.9 nM | 3680 nM | 19.5 nM | 672 nM | 11800 nM | 11800 nM | 949 nM | 5580 nM | > 50000 nM | 2570 nM | 700 nM | 4500 nM | GI50 [4, 8]: 2440 nM; additional affinity for CDK1/2 [5]: additional affinity
CC(=O)c1c(C)c2cnc(Nc3ccc(N4CCC(CCCO)CC4)cc3)nc2n(C2CCCC2)c1=O [PS009, 6-acetyl-8-cyclopentyl-2-((4-(4-(3-hydroxypropyl)piperidin-1-yl)phenyl)amino)-5-methylpyrido[2,3-d]pyrimidin-7(8H)-one] | > 50000 nM | > 50000 nM | 32500 nM | 19700 nM | 17400 nM | 36400 nM | 2940 nM | 7660 nM | 26 nM | 1860 nM | 13 nM | 125 nM | 30800 nM | > 50000 nM | 48900 nM | > 50000 nM | > 50000 nM | 1550 nM | 1170 nM | 3000 nM | GI50 [3, 7]: 3300 nM; GI50 [4, 8]: 900 nM; GI50 [4, 9]: 6900 nM; additional affinity for CDK1/2 [5]: additional affinity; kinase affinity profile [5]: mainly bound to CDK4/6/ with also an interesting preference for CDK2 and CDK9
CC(=O)c1c(C)c2cnc(Nc3ccc(N4CCNCC4)cc3)nc2n([C@@H]2CC3CCC2C3)c1=O (stereo partly drawn) [PS010, 6-acetyl-8-((2R)-bicyclo[2.2.1]heptan-2-yl)-5-methyl-2-((4-(piperazin-1-yl)phenyl)amino)pyrido[2,3-d]pyrimidin-7(8H)-one] | 13500 nM | 4210 nM | 2050 nM | 1440 nM | 799 nM | 2850 nM | 276 nM | 170 nM | 3.15 nM | 113 nM | 1.83 nM | 21.2 nM | 2030 nM | 3650 nM | 22100 nM | 187 nM | 8140 nM | 370 nM | 80 nM | 500 nM | GI50 [4, 8]: 160 nM; affinity for CDK5 [5]: presented affinity
O=c1ccc2cnc(Nc3ccc(N4CCC(OCC5(CO)COC5)CC4)cc3)nc2n1[C@@H]1CC2CCC1C2 (stereo partly drawn) [PS016, 8-((2R)-bicyclo[2.2.1]heptan-2-yl)-2-((4-(4-((3-(hydroxymethyl)oxetan-3-yl)methoxy)piperidin-1-yl)phenyl)amino)pyrido[2,3-d]pyrimidin-7(8H)-one] | 1980 nM | 1360 nM | 614 nM | 527 nM | 339 nM | 2790 nM | 71.7 nM | 555 nM | 8.86 nM | 255 nM | 7.42 nM | 33.3 nM | 2370 nM | 28800 nM | 10700 nM | > 50000 nM | 40100 nM | 440 nM | 130 nM | 1230 nM | GI50 [4, 8]: 1120 nM; additional affinity for CDK1/2 [5]: additional affinity; affinity for CDK5 [5]: presented affinity
